Results from the kinase profiling compilation of Christmann-Franck et al. (2016).

Experiments:
Test in all cases: KINOMEscan competition binding
Conditions in all cases: compound 1.0 µM
CaMK1 (human) = CaMK1 (human) (UniProt Q14012)
DYRK2 (human) = DYRK2 (human) (UniProt Q92630)
RPS6KA4 KD1 (human) = RPS6KA4 KD1 (human) (UniProt O75676)
SGK110 (human) = SGK110 (human) (UniProt P0C264)
AURKA (human) = AURKA (human) (UniProt O14965)
FGFR1 (human) = FGFR1 (human) (UniProt P11362)
LTK (human) = LTK (human) (UniProt P29376)
RIPK1 (human) = RIPK1 (human) (UniProt Q13546)
SRC (human) = SRC (human) (UniProt P12931)
Chain of SRC (human) (P12931 whole entry, looked up): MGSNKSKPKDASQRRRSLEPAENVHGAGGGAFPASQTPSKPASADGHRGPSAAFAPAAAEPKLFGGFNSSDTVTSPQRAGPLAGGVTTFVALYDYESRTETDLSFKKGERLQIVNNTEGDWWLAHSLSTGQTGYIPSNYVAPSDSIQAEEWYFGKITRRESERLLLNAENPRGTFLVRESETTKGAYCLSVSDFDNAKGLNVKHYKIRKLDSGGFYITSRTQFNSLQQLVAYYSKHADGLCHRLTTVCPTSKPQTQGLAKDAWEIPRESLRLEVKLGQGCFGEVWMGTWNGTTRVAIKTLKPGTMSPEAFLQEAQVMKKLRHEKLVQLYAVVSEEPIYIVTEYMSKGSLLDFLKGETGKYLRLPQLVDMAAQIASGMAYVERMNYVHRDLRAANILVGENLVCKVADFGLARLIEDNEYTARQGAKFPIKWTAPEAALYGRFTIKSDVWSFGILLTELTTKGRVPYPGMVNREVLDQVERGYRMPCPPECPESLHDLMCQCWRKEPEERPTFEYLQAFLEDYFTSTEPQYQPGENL

YES1 (human) = YES1 (human) (UniProt P07947)
STK4 (human) = STK4 (human) (UniProt Q13043)
CLK1 (human) = CLK1 (human) (UniProt P49759)
CDK11B (human) = CDK11B (human) (UniProt P21127)
PTK6 (human) = PTK6 (human) (UniProt Q13882)
EPHB4 (human) = EPHB4 (human) (UniProt P54760)
BMP2K (human) = BMP2K (human) (UniProt Q9NSY1)
Chain of BMP2K (human) (Q9NSY1 whole entry, looked up): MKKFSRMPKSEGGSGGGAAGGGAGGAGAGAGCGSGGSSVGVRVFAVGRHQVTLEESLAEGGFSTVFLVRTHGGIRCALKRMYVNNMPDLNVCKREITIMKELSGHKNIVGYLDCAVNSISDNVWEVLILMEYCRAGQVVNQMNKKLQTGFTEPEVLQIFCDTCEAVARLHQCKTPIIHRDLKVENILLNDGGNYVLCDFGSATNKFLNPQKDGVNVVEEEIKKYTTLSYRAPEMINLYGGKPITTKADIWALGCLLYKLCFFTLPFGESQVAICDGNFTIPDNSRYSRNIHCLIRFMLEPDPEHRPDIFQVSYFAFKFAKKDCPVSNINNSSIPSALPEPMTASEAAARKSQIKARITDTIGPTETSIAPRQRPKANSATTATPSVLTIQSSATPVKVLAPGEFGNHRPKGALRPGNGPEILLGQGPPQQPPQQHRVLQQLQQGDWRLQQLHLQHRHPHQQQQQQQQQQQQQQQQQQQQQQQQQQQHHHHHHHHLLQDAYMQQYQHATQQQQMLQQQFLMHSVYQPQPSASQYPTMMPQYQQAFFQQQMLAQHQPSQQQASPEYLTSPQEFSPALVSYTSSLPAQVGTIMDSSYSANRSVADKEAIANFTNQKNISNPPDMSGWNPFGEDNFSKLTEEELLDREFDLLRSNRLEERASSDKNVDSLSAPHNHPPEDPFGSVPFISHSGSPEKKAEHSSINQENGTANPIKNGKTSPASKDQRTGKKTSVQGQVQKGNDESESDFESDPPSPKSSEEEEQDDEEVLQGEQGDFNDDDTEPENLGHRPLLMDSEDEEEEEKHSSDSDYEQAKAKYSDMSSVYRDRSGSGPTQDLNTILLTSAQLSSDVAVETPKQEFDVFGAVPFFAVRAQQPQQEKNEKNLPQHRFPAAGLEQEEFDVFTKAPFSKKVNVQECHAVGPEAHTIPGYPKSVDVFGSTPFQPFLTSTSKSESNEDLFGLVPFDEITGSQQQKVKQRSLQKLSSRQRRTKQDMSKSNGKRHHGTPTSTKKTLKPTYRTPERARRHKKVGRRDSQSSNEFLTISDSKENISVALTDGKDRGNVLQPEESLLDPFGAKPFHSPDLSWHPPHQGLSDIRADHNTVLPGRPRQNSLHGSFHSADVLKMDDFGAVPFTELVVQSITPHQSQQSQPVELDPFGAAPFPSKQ

[1] = system: ABL1 (human), P00519 [E255K]
GRK4 (human) = GRK4 (human) (UniProt P32298)
PDGFRA (human) = PDGFRA (human) (UniProt P16234)
MAP3K15 (human) = MAP3K15 (human) (UniProt Q6ZN16)
Chain of MAP3K15 (human) (Q6ZN16 whole entry, looked up): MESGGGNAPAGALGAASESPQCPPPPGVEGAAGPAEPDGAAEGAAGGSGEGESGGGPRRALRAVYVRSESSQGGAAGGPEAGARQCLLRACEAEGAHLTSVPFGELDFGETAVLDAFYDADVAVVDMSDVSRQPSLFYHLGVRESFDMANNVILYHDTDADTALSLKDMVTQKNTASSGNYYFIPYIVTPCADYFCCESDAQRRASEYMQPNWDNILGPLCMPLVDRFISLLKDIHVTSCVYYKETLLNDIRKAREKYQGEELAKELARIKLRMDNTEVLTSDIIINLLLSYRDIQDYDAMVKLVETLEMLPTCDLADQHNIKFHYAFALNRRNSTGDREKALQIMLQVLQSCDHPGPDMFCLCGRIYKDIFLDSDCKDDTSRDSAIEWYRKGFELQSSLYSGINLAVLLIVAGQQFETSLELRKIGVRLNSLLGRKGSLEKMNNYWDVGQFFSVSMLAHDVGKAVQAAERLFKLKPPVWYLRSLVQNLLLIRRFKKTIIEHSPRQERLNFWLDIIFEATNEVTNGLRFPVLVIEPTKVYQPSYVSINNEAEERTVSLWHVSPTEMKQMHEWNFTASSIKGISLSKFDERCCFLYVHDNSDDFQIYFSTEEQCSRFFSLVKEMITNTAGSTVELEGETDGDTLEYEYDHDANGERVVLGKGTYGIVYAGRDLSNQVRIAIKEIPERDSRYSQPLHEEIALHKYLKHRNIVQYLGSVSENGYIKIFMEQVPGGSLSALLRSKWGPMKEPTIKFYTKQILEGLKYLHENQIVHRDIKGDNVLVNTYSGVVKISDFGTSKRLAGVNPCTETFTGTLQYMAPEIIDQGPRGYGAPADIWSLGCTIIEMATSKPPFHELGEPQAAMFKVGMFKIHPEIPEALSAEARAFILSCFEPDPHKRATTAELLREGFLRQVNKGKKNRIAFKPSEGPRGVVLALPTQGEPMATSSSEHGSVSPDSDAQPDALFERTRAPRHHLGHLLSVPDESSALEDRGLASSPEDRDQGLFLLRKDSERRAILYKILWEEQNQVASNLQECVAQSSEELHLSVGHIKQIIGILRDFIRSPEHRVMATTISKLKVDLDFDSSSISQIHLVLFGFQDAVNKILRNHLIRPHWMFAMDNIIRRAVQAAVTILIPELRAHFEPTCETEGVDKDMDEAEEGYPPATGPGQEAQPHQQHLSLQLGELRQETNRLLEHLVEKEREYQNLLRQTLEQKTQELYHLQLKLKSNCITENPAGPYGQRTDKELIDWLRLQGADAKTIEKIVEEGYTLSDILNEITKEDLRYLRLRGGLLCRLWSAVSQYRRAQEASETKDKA

DDR1 (human) = DDR1 (human) (UniProt Q08345)
RPS6KA2 KD2 (human) = RPS6KA2 KD2 (human) (UniProt Q15349)
STK38 (human) = STK38 (human) (UniProt Q15208)
PRKAA2 (human) = PRKAA2 (human) (UniProt P54646)
Chain of PRKAA2 (human) (P54646 whole entry, looked up): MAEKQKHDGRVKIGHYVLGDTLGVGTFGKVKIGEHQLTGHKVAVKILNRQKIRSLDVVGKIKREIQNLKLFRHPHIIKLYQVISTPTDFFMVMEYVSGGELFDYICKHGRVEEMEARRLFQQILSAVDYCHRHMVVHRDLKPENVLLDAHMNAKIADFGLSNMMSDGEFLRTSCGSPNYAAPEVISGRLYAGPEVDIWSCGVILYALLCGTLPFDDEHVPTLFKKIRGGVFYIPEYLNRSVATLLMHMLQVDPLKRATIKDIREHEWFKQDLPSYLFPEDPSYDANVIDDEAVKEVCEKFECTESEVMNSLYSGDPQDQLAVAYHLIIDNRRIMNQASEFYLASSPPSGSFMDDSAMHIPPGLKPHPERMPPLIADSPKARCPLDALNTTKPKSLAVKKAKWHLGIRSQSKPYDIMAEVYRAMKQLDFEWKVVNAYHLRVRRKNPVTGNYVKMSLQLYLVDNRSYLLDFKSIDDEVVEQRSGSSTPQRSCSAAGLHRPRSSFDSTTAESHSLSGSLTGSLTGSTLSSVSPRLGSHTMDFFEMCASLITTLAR

CDK3 (human) = CDK3 (human) (UniProt Q00526)
Chain of CDK3 (human) (Q00526 whole entry, looked up): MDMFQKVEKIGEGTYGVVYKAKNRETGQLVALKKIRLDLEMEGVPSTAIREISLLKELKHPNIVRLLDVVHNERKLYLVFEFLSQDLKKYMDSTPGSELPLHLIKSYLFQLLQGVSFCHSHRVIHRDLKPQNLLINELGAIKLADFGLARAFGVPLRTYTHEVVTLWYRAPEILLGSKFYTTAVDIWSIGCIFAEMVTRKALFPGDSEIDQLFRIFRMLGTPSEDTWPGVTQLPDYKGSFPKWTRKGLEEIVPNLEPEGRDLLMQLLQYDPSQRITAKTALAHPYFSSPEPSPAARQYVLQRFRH

FLT1 (human) = FLT1 (human) (UniProt P17948)
CSNK2A2 (human) = CSNK2A2 (human) (UniProt P19784)
PDGFRB (human) = PDGFRB (human) (UniProt P09619)
BRAF (human) = BRAF (human) (UniProt P15056)
FER (human) = FER (human) (UniProt P16591)
MAPK9 (human) = MAPK9 (human) (UniProt P45984)
MAP3K6 (human) = MAP3K6 (human) (UniProt O95382)
DYRK1B (human) = DYRK1B (human) (UniProt Q9Y463)
[2] = biological target: JAK2 JH1 catalytic (human) (UniProt O60674)
PIM2 (human) = PIM2 (human) (UniProt Q9P1W9)
RPS6KA6 KD1 (human) = RPS6KA6 KD1 (human) (UniProt Q9UK32)
FLT4 (human) = FLT4 (human) (UniProt P35916)
CAMK1D (human) = CAMK1D (human) (UniProt Q8IU85)
Chain of CAMK1D (human) (Q8IU85 whole entry, looked up): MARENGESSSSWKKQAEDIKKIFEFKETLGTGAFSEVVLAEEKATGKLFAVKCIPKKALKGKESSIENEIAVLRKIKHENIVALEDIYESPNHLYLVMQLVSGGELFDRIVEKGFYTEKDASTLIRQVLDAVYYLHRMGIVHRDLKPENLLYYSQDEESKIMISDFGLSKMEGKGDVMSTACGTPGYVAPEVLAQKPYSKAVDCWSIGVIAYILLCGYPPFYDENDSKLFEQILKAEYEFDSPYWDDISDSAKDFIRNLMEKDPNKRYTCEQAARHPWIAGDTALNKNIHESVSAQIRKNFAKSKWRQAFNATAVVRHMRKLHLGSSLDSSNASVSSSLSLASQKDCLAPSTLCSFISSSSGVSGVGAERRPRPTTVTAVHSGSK

CAMK2A (human) = CAMK2A (human) (UniProt Q9UQM7)
CAMKK2 (human) = CAMKK2 (human) (UniProt Q96RR4)

Chain of FGFR1 (human) (P11362 whole entry, looked up): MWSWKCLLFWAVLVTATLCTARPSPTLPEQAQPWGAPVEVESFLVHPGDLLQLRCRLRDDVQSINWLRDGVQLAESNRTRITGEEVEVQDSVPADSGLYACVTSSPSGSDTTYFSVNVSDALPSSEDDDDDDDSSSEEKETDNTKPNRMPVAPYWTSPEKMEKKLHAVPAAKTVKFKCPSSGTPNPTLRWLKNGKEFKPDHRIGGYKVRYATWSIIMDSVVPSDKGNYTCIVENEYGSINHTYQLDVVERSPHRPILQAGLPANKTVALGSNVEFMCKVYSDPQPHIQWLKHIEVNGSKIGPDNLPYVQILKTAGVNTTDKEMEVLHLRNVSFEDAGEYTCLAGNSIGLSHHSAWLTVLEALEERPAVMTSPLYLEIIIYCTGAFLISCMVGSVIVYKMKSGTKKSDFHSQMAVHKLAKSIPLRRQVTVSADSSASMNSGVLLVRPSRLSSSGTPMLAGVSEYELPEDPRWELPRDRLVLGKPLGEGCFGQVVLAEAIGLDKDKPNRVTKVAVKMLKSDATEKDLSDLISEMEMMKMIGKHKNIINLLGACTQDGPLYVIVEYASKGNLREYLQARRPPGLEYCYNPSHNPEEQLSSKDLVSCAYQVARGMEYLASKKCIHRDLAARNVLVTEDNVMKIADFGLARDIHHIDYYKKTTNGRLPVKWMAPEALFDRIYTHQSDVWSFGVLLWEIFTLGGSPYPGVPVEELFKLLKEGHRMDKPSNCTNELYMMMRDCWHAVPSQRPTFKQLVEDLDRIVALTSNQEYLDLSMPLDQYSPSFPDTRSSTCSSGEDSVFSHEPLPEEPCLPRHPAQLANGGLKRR

Nc1cc(C(F)(F)F)c(-c2cc(N3CCOCC3)nc(N3CCOCC3)n2)cn1
inhibition of binding (CaMK1 (human)): 4%
inhibition of binding (DYRK2 (human)): 20%
inhibition of binding (RPS6KA4 KD1 (human)): 4%
inhibition of binding (SGK110 (human)): 3%
inhibition of binding (AURKA (human)): 0%
inhibition of binding (FGFR1 (human)): 0%
inhibition of binding (LTK (human)): 0%
inhibition of binding (RIPK1 (human)): 0%
inhibition of binding (SRC (human)): 6%
inhibition of binding (YES1 (human)): 0%
inhibition of binding (STK4 (human)): 0%
inhibition of binding (CLK1 (human)): 58%
inhibition of binding (CDK11B (human)): 10%
inhibition of binding (PTK6 (human)): 0%
inhibition of binding (EPHB4 (human)): 4%
inhibition of binding (BMP2K (human)): 0%
inhibition of binding [1]: 0%
inhibition of binding (GRK4 (human)): 0%
inhibition of binding (PDGFRA (human)): 11%
inhibition of binding (MAP3K15 (human)): 0%
inhibition of binding (DDR1 (human)): 7%
inhibition of binding (RPS6KA2 KD2 (human)): 16%
inhibition of binding (STK38 (human)): 1%
inhibition of binding (PRKAA2 (human)): 0%
inhibition of binding (CDK3 (human)): 0%
inhibition of binding (FLT1 (human)): 0%
inhibition of binding (CSNK2A2 (human)): 2%
inhibition of binding (PDGFRB (human)): 0%
inhibition of binding (BRAF (human)): 18%
inhibition of binding (FER (human)): 0%
inhibition of binding (MAPK9 (human)): 0%
inhibition of binding (MAP3K6 (human)): 0%
inhibition of binding (DYRK1B (human)): 0%
inhibition of binding [2]: 12%
inhibition of binding (PIM2 (human)): 0%
inhibition of binding (RPS6KA6 KD1 (human)): 0%
inhibition of binding (FLT4 (human)): 3%
inhibition of binding (CAMK1D (human)): 0%
inhibition of binding (CAMK2A (human)): 2%
inhibition of binding (CAMKK2 (human)): 0%
